Data published in ChEMBL document CHEMBL1201862, “PubChem BioAssay data set” (2004).
The source made the active and inactive calls. For most assays here, no stated cut-off is given here; in the data, actives have a measured EC50 and inactives only a lower limit.

What was measured:
[1] = Luminescence Cell-Based Dose Response to Identify Activators of 5'UTR Stem-Loop Driven Prion Protein mRNA Translation in H4-C Neuroglioblastoma Cells. [Related pubchem assays: 1829 (Project Summary), 1814 (Primary HTS)]; type: functional
[2] = Luminescence Cell-Based Dose Confirmation HTS to Identify Activators of 5'UTR Stem-Loop Driven Alpha-Synuclein mRNA Translation in H4 Neuroglioblastoma Cells. [Related pubchem assays: 1829 (Project Summary), 1814 (Primary HTS)]; type: functional
[3] = Luminescence Cell-Based Dose Response HTS to Identify Activators of Luciferase Translation or Activity in H4 […] Cells. [Related pubchem assays: 1829 (Project Summary), 1814 (Primary HTS)]; type: functional
H4 = test: Luminescence Cell-Based Dose Response HTS to Identify Activators of 5'UTR Stem-Loop Driven Prion Protein mRNA Translation in H4 Neuroglioblastoma Cells. [Related pubchem assays: 1829 (Project Summary), 1814 (Primary HTS)]; type: functional; conditions: Homo sapiens
[4] = Luminescence Cell-Based Dose Response to Identify Activators of Luciferase Translation or Activity in H4-C Neuroglioblastoma Cells. [Related pubchem assays: 1829 (Project Summary), 1814 (Primary HTS)]; type: functional
[5] = Luminescence Cell-Based Dose Confirmation to Identify Activators of 5'UTR Stem-Loop Driven Alpha-Synuclein mRNA Translation in H4 Neuroglioblastoma Cells. [Related pubchem assays: 1829 (Project Summary), 1814 (Primary HTS)]; type: functional
[6] = biological target: T1, RNA-binding protein pos-1 (Caenorhabditis elegans, UniProt G5EF15); test: inhibitors of POS-1/mex-3 RNA binding, dose response, biochemical, fluorescence polarization (AID 1964);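 further: purified POS-1 fused to maltose binding protein made in E. coli; potency of compounds blocking POS-1 binding to fluorescent RNA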
T1 sequence (G5EF15 whole entry): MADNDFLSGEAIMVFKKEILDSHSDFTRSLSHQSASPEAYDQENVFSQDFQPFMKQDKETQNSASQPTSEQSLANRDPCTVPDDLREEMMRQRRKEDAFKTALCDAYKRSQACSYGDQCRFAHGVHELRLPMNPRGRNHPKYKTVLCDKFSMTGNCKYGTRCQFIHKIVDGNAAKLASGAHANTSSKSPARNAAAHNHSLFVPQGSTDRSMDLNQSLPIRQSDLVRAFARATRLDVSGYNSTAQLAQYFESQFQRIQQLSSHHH

[7] = biological target: T2, Zinc finger protein mex-5 (Caenorhabditis elegans, UniProt Q9XUB2); test: MEX-5/TCR-2 RNA interaction inhibitors, dose response, biochemical, C. elegans, fluorescence polarization (AID 1960)
T2 sequence (Q9XUB2 whole entry): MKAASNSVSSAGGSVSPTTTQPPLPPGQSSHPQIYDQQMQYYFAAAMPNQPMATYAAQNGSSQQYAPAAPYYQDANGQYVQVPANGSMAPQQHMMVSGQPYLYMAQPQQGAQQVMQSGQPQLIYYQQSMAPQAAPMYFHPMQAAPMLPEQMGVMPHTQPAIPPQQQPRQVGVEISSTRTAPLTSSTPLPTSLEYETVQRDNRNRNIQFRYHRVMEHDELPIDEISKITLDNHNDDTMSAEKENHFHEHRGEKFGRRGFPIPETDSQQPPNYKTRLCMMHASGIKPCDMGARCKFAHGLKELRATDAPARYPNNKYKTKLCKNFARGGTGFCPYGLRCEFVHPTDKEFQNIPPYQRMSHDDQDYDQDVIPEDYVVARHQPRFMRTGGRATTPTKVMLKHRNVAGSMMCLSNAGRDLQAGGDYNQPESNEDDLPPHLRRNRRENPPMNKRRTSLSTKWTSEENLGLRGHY

[8] = biological target: T3, Corticotropin-releasing factor receptor 2/Corticotropin-releasing factor-binding protein (Homo sapiens, UniProt P24387+Q13324); test: Dose Response confirmation of uHTS hits for small molecule antagonists of the CRF-binding protein and CRF-R2 receptor complex.; type: functional; conditions: read-out: IC50_Mean
T3 sequence (Q13324 whole entry): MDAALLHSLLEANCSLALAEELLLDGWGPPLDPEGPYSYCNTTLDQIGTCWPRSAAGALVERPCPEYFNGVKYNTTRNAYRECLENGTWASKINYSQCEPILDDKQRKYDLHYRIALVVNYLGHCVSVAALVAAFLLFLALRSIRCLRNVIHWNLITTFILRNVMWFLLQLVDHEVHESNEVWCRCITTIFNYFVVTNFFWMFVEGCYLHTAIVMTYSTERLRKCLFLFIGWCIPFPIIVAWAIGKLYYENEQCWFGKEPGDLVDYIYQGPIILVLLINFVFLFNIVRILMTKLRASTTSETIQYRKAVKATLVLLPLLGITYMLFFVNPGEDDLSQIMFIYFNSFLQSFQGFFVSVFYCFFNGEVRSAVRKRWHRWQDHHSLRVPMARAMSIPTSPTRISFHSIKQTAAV
T3 sequence (P24387 whole entry): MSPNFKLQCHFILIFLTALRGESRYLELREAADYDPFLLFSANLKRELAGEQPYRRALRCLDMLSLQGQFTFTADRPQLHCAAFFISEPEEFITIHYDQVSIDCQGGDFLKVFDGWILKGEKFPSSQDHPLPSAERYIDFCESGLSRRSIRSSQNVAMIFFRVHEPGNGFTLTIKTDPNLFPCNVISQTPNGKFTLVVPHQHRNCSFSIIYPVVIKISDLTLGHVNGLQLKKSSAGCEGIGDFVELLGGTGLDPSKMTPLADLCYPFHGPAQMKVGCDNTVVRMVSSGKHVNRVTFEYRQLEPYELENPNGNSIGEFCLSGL

[9] = biological target: T3, Corticotropin-releasing factor receptor 2/Corticotropin-releasing factor-binding protein; test: activators of CRF receptor 2 with binding protein – uHTS hits, confirmation (AID 602473); type: functional; conditions: read-out: EC50_Mean
[10] = Luminescence-based cell-based high throughput dose response assay to identify activators of the DAF-12 from the parasite S. stercoralis (ssDAF-12).; type: functional
[11] = biological target: T4, Oxysterols receptor LXR-beta (Homo sapiens, UniProt P55055); test: LXR agonists, Gal4 luciferase reporter, dose response, counter-screen for ssDAF-12 agonist project, cell-based, luminescence, HEK293, S. stercoralis campaign (AID 720737); type: functional; conditions: read-out: IC50 (the source's name)
T4 sequence (P55055 whole entry): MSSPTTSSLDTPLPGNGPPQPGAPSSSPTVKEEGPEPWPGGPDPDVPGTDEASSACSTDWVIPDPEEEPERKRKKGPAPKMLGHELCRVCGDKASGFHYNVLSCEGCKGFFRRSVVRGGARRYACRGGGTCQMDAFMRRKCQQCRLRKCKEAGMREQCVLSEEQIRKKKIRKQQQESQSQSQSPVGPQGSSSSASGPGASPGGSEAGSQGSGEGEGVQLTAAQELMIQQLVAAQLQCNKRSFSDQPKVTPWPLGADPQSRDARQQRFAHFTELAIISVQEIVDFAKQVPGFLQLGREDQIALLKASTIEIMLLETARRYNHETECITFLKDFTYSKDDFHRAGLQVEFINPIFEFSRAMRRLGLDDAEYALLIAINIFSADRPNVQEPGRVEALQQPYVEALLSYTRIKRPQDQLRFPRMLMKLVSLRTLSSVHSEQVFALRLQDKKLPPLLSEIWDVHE

[12] = cytotoxicity in HPDE-C7 cells, cell-based, fluorescence, HTS (AID 430); type: functional; conditions: Homo sapiens
[13] = cytotoxicity in KRAS-transformed pancreatic duct cells, primary screen, cell-based, fluorescence, HTS (AID 431); type: functional; conditions: Homo sapiens;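 further: cell line used: HPDE-C7K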
[14] = biological target: T5, Heat shock factor protein 1 (Mus musculus, UniProt P38532); test: HSF1 potentiators in luciferase reporter cells, confirmation, cell-based, NIH3T3, luminescence, dose retest (AID 435004); type: functional;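 further: stress induced by proteasome inhibitor MG132 added 30 min after compound; luciferase reporter driven by HSF1 response element in NIH3T3 cells; actives raise luminescence as potentiators of the MG132 stress response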
T5 sequence (P38532 whole entry): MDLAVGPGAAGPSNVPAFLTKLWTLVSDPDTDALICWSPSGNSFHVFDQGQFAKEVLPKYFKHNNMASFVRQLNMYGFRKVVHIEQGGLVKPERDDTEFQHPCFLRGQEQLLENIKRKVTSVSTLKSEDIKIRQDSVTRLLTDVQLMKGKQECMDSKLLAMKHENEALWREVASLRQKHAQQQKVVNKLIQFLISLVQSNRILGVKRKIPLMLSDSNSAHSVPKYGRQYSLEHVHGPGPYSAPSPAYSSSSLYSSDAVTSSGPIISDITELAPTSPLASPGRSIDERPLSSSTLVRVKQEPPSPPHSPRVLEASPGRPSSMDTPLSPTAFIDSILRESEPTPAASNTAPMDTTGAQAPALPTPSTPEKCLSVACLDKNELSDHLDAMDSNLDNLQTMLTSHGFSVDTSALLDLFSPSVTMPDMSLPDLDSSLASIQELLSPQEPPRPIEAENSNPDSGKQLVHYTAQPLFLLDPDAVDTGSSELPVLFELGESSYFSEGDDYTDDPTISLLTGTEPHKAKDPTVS

[15] = biological target: T6, Replicative DNA helicase DnaB (Mycobacterium tuberculosis, UniProt P9WMR3); test: DnaB intein splicing inhibitors, dose response, biochemical, cell-free fluorescence (AID 449749); type: functional
T6 sequence (P9WMR3 whole entry): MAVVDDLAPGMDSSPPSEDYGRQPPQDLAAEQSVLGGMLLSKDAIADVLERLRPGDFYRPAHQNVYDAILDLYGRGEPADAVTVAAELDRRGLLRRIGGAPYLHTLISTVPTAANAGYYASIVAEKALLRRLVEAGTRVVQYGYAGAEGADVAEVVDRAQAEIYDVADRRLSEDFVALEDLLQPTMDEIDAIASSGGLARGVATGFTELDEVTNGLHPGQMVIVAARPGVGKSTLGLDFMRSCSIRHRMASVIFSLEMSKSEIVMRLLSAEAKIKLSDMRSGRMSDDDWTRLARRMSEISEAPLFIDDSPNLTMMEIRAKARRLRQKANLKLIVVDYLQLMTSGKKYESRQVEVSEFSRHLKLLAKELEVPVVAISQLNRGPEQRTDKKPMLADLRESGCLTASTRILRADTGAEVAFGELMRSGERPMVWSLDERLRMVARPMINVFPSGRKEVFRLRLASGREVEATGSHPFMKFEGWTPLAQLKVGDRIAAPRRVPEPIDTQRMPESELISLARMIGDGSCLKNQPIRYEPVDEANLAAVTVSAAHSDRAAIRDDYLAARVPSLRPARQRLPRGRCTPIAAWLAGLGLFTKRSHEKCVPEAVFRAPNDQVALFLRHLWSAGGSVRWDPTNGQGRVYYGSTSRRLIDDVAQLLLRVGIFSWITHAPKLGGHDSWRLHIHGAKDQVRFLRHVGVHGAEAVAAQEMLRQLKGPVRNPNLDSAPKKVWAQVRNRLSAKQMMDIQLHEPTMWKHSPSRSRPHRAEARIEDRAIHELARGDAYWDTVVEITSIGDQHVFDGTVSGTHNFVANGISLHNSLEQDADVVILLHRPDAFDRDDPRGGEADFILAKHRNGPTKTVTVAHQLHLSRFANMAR

Protein RecA = biological target: T7, Protein RecA (Mycobacterium tuberculosis, UniProt P9WHJ3); test: Fluorescence Cell-Free Homogeneous Dose Retest to Identify Inhibitors of RecA-Intein Splicing Activity. [Related pubchem assays (depositor defined):AID2097, AID2223, AID489010, AID492950]; type: functional
T7 sequence (P9WHJ3 whole entry): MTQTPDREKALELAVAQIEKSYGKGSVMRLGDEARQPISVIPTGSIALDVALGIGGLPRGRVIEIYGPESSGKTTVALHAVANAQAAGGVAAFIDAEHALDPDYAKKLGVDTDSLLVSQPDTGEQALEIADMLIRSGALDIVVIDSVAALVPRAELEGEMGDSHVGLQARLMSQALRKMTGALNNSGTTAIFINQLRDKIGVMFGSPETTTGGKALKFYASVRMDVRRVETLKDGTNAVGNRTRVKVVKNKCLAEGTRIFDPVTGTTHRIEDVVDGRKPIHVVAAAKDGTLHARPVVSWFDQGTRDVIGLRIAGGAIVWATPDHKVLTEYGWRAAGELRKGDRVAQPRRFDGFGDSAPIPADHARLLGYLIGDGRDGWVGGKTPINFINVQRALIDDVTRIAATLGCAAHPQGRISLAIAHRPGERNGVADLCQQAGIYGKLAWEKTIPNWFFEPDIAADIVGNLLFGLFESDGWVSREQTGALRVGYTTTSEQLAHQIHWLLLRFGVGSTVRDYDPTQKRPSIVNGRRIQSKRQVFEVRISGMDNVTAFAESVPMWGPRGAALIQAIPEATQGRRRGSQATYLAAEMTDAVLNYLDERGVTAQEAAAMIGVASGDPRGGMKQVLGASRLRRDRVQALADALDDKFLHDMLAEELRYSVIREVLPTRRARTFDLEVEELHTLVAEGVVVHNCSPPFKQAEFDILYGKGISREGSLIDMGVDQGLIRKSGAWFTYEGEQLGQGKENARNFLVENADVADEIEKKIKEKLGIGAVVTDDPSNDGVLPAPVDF

O=C(/C=C/c1ccco1)NC1=NCCS1
EC50 [1]: 0.519 µM (active) | EC50 [2]: < 0.1 µM (active) | EC50 [3]: 0.484 µM (active) | EC50 (H4): < 0.1 µM (active) | EC50 [4]: 0.323 µM (active) | EC50 [5]: 0.428 µM (active)

CCCn1nc(C(=O)Nc2ccc3nc(C)sc3c2)c2ccccc2c1=O
EC50 [6]: > 300 µM (not active) | EC50 [7]: > 300 µM (not active) | IC50 [8]: > 47.1 µM (inactive) | EC50 [9]: > 53 µM (inactive) | IC50 [10]: > 67.5 µM (inactive) | EC50 [11]: > 67.5 µM (inactive)

CC(C)(C)NC(=O)CSc1ncnc2c1nnn2Cc1ccccc1Cl
EC50 [12]: 11.8 µM (active) | EC50 [13]: 14.1 µM (active) | EC50 [14]: 13.3 µM (active) | AC50 [15]: 6.8 µM (active) | EC50 (Protein RecA): 8.37 µM (active)
